According to patent EP0039037A1, “Pyrimidylthio-ureas, medicines containing them and their use” (Beiersdorf Aktiengesellschaft, priority 1980, dated 1981):

Legend:
[1] = tested on: spontan hypertensive Ratten; assay: Blood-pressure-lowering effect in spontaneously hypertensive rats; assay type: in vivo; conditions: 30 mg/kg peroral
Method: (§1) Es wurde die lipid- und blutdrucksenkende Wirkung von N-(2,4-DimethoxY-5-pyrimidyl)-thioharnstoff untersucht. Als Yersuchsziere. wurden hyperlipidämische Mäuse und spontan hypertensive Ratten verwendet.
Bei den Ratten wurde eine Dosis von 30 mg/kg peroral verabreicht, wobei eine Blutdrucksenkung von 30 % erzielt wurde.
Es wurde die blutdrucksenkende Wirkung von N-(4,6-Dimethoxy-2-methyl-5-pyrimidyl)-thioharnstoff bei spontan hypertensiven Ratten untersucht. Den Ratten wurde die Verbindung in einer Dosis von 30 mg/kg peroral verabreicht. Damit wurde eine Blutdrucksenkung von 30 % erzielt.

[2] = tested on: hyperlipidämische Mäuse; assay: Lipid-lowering effect in hyperlipidaemic mice (method analogous to Turner, Screening Methods in Pharmacology, and Garattini et al.); assay type: in vivo
Method: Die lipidsenkende Wirkung von N. (4,6-Dimethoxy-5-pyrimidyl)-thioharnstoff wurde an hyperliprdämischen Mausen analog einer Untersuchungsmethode, wie in "Screening Methods in Pharmacology", Robert A. Turner, 1965, Academic Press, New York and London, und Garattini et al, Arzneimittelforschung 9, 206 (1959), angegeben, untersucht. Die Verbindung wurde in einer Menge von 10 mg/kg peroral verabreicht. Es wurde eine Senkung des Cholesterinspiegels von 25 % und eine Senkung der Triglyceride von 27% erzielt.
as §1
Bei den Mäusen wurde eine Verabreichungsdosis von 100 mg/ kg peroral verwendet, wobei eine Senkung des Cholesterinspiegels von 38 % und eine Senkung der Triglyceride von 49 % erreicht wurde.

SMILES	Blutdrucksenkung [1] [%]	Senkung der Triglyceride ([2]; 100 mg/kg peroral) [%]	Senkung des Cholesterinspiegels ([2]; 100 mg/kg peroral) [%]	Senkung der Triglyceride ([2]; 10 mg/kg peroral) [%]	Senkung des Cholesterinspiegels ([2]; 10 mg/kg peroral) [%]
COc1ncc(NC(N)=S)c(OC)n1 [N-(2,4-Dimethoxy-5-pyrimidyl)-thioharnstoff]	30	49	38		
COc1nc(C)nc(OC)c1NC(N)=S [N-(4,6-Dimethoxy-2-methyl-5-pyrimidyl)-thioharnstoff]	30				
COc1ncnc(OC)c1NC(N)=S [N-(4,6-Dimethoxy-5-pyrimidyl)-thioharnstoff]				27	25
